# pIC50: −log10 of the molar value. Entries after “also recorded” stand apart in the source; their conditions may differ.
# Experiments:
# [1] = biological target: T1, SHMT2 (Homo sapiens, UniProt P34897); experiment: SHMT2 inhibition (Table 2); type: biochemical
# T1 sequence (P34897 30-504): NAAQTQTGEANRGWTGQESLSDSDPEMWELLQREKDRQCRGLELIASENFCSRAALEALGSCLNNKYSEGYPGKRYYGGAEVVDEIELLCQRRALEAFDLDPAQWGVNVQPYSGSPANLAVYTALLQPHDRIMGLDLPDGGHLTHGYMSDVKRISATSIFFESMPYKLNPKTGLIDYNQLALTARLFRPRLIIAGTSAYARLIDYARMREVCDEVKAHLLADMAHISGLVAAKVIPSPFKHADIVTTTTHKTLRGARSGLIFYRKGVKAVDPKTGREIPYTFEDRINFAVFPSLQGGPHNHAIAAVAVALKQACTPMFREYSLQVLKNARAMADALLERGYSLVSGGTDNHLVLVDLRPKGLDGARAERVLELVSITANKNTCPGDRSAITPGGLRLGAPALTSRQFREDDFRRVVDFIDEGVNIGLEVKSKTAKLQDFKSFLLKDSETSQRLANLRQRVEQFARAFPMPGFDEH
# [2] = biological target: T2, SHMT1 (Homo sapiens, UniProt P34896); experiment: SHMT1 inhibition (Table 2); type: biochemical
# T2 sequence (P34896 1-483): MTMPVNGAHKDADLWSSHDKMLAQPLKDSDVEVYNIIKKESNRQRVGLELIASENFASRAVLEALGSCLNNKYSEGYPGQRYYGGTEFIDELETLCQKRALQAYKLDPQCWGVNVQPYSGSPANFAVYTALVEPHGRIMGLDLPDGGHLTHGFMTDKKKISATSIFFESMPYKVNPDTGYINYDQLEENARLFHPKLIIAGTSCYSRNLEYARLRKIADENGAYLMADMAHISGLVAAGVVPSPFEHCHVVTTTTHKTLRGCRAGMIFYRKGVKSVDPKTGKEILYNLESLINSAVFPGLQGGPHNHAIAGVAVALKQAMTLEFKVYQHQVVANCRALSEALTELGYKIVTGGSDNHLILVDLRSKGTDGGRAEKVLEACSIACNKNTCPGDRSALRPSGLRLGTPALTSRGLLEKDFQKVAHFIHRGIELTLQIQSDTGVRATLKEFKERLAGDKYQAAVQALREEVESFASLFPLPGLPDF
# [3] = test system: HCT116 cells; experiment: Cell proliferation assay, HCT116; type: cell-based
# Procedure: (§1) Cell Proliferation Assays. Cells were seeded in seeded in 96 well plates (Corning 3603) for overnight attachment. Medium (with or without drugs) was changed next day, and cell numbers were recorded using Thermofisher CyQUANT kit.
# [4] = test system: C2C12 cells; experiment: C2C12 cells treated with metformin, serine catabolism inhibition; type: cell-based; conditions: C2C12, 5 mM metformin, SHIN1 250 nM
# Procedure: (§2) Adherent cells. Cells were seeded in 6 well plates overnight and then were treated with ETC inhibitors. Serine-free DMEM with 10% dialyzed FBS was supplemented with 400 µM [2,3,3, 2H]serine. Medium was replaced by the isotope tracing medium with corresponding drugs, and cells were incubated for 3 h. Medium was aspirated, and metabolism was quenched with extraction buffer (40:40:20 acetonitrile:methanol: water with 0.5% formic acid; 40 μl of extraction solvent per 1 μl packed cell volume)(Lu et al., 2018). Plates were placed on dry ice for 10 mins, and thereafter the extraction solution was neutralized with 15% NH4HCO3 (70 μl for 800 μl extraction buffer). Cells were then scraped off from plates by using a cell lifter (Corning 3008), transferred into Eppendorf tubes and centrifuged in a benchtop microfuge at maximum speed for 30 min at 4° C. Supernatant was transferred to LC-MS vials for analysis.
# as §1
# [5] = test system: HCT116 xenograft tumors; experiment: HCT116 xenograft tumors, metabolomics and [2,3,3-2H]serine tracing; type: in vivo, mice
# Procedure: Mouse Xenograft and allograft. For tumor xenograft tracing experiments, 6- to 7-week-old male CD1/nude mice were injected in the rear flanks with HCT-116 (1×10^6 cells in 100 μL 1:1 PBS:Matrigel). For tumor allograft tracing experiment, 6- to 8-wk-old male C57BL6 mice were injected in the rear flank with KrasLSL.G12D/+x p53R172H/+x PdxCretg/+ pancreatic tumor tissue suspension (200 μL 1:1 DMEM:Matrigel). Jugular vein catheterization surgery was performed when tumor size reached 250 mm3 [volume=1/2 (length×width×height)]. […] Tracing experiments were performed after 1 week of post-surgery monitoring. Tumors were removed and immediately clamped to aluminum foil using Wollenberger clamp and stored in liquid nitrogen. For Long term storage, tissues were kept in −80° C. until future sample preparation.
# Metabolites extraction from tissue, tumors and serum. Tissues and tumors were collected from mice and immediately clamped into liquid nitrogen using Wollenberger clamp, tissue were stored in −80° C. Frozen tissues were transferred into 2 ml Eppendorf tubes, which are precooled on dry ice, and pulverized by using cyromill. The resulting tissue powder was weighed (around 10 mg) and mixed well by vortexing in extraction buffer (40 μL extraction buffer per mg tissue). The extraction solution was neutralized with NH4HCO3 as above and centrifuged in a microfuge at maximum speed for 30 min at 4° C. Supernatant was transferred to LC-MS vials for analysis.
# IACS-10759 is a potent mitochondrial complex I inhibitor with efficacy in inhibiting tumor growth and inducing apoptosis in models of brain cancer and acute myeloid leukemia. Molina, J. R. et al., Nat. Med. 24, 1036-1046 (2018). […] To check whether circulating serine contributes NADH when respiration is impaired in vivo, [2,3,3-^2H]serine was infused into tumor bearing mice.
# [6] = biological target: T3, MTHFD2 (Homo sapiens, UniProt P13995); experiment: Enzymatic assay for MTHFD2 with increasing NADH; type: biochemical
# T3 construct: purchased Raze Therapeutics (gift, not a catalogue product)
# T3 sequence (P13995 36-350): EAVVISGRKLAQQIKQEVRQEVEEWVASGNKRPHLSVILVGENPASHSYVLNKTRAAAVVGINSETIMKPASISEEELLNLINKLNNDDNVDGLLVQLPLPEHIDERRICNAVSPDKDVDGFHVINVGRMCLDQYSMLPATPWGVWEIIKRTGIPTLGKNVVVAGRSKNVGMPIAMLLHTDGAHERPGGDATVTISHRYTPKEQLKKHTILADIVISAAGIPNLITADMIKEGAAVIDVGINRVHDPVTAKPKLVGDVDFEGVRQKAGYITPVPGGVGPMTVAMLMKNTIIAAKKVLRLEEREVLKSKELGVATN
# Procedure: Enzymatic Assay for MTHFD2. NAD (Sigma N0632), NADH (Sigma N8129) and 5, 10-meTHF (Schircks Laboratories, 16.226) solution were freshly prepared each time in water. Reaction mixtures consisted of 50 mM KH2PO4 pH 7.4, 5 mM dithiothreitol (DTT), 5% DMSO, and 0.005 mg/mL MTHFD2 (obtained from Raze Therapeutics), and NAD and NADH as indicated in the Figures. Reaction mixtures were incubated for 5 min at 37° C. before initiation of the reaction by addition of 5,10-meTHF to a final concentration of 0.4 mM using multichannel. The plate was mixed for 5 s in the plate reader (Biotek Synergy HT), and the rate of change in absorbance at 340 nm due to NADH accumulation was recorded over the duration of linear NADH accumulation.
# Enzymatic Assay for MDH. NAD and NADH solutions were freshly prepared in water; malate solution was prepared in 50 mM Tris-HCl and adjusted pH to 7.6 with 10 M KOH. […] The plate was mixed for 5 s in the plate reader, and absorbance at 340 nm recorded as above.
# Enzymatic assay for PDH and KGDH: Pyruvate dehydrogenase and alpha-ketoglutarate dehydrogenase solutions were freshly prepared to a concentration 0.075 unit/ml with buffer containing 20 mM sodium phosphate and 1 mM MgCl2, pH7.2. […] The plate was mixed for 5 s in the plate reader, and absorbance at 340 nm recorded as above.
# [7] = test system: HCT116 cells; experiment: NAD2H labeling from [2,3,3-2H]serine in cultured cells; type: cell-based
# Procedure: as §2
# LC-MS. […] Solvent A is 95:5 water: acetonitrile with 20 mM ammonium acetate and 20 mM ammonium hydroxide at pH 9.4, and solvent B is acetonitrile. The gradient was 0 min, 85% B; 2 min, 85% B; 3 min, 60% B; 9 min, 60% B; 9.5 min, 35% B; 13 min, 5% B; 15.5 min, 5% B; 16 min, 85% B; 20 min, stop run. Injection volume was 15 μL. The Q-Exactive Plus mass spectrometer was operated in negative ion mode scanning from m/z 70-1000 with a resolution (at m/z 200) of 140,000 (AGC target 3e6, Maximum IT 200 ms) (Wang et al., 2019). A second scan from m/z 640-765 with a resolution (at m/z 200) of 35,000 (AGC target 5e5, maximum IT 200 ms) was used to measure NAD(P), NAD(P)H, and their labeling. The purpose of the second scan was to enhance sensitivity for NAD(P)(H) by restricting the range of ions in the orbitrap and to maximize the accuracy of isotope ratios by decreasing the scan range and mass resolution (Su et al., 2017).
# Calculation of 2H-serine contribution to malate, aspartate, and NADH: For malate and aspartate, the 2H-labeling fraction was measured directly (fractional size of 2H-peak relative to sum of all peaks, after isotope correction as above). For NADH, the 2H-labeling fraction was measured based on the active hydride labeling (x), which was determined from the labeling pattern of NAD+ and NADH by least square fitting in MATLAB of the observed experimental data (after natural isotope correction) to the below vectors (Liu et al., 2016a).
# [8] = test system: liver NADH/NAD ratio; experiment: Serine/metformin drinking water, liver metabolomics; type: in vivo, mice; conditions: 5% serine or 0.25% metformin drinking water for 2 weeks
# [9] = IACS-10759 10 mg/kg gavage every day for 7 days, CD-1 nude mice
# [10] = cultured cells, complex I inhibitor added
compound,measurement,setting,value
Cc1n[nH]c2c1C(c1cc(Cl)cc(Cl)c1)(C1CCC1)C(C#N)=C(N)O2 (centres unmarked) [HK-10],pIC50,[1],5.92
same,pIC50,[2],6.23
Cc1n[nH]c2c1C(c1cc(Cl)cc(Cl)c1)(C(C)C)C(C#N)=C(N)O2 (centres unmarked) [HK-14],pIC50,[1],6.88
same,pIC50,[2],7.17
Cc1n[nH]c2c1C(c1cc(Cl)cc(C(F)(F)F)c1)(C(C)C)C(C#N)=C(N)O2 (centres unmarked) [HK-15],pIC50,[1],7.46
same,pIC50,[2],7.70
Cc1n[nH]c2c1C(c1cc(N3CCCC3)cc(C(F)(F)F)c1)(C(C)C)C(C#N)=C(N)O2 (centres unmarked) [HK-X1],pIC50,[1],7.18
same,pIC50,[2],7.89
Cc1[nH]nc2c1C(c1cc(CO)cc(-c3ccccc3)c1)(C(C)C)C(C#N)=C(N)O2 (centres unmarked) [HK-X2 (SHIN1)],cell proliferation / growth,"[3]; HCT116, in the presence of metformin",enhances growth; also recorded: augmented proliferation
same,cell proliferation / growth,"[3]; HCT116, in the presence of phenformin or rotenone",enhances growth; also recorded: augmented proliferation
same,cell proliferation,"[3]; HCT116, standard tissue culture conditions",decreased cell proliferation
same,cell growth,"[3]; HCT116 WT, hypoxia (0.5% O2), low doses of SHIN1",modestly increased cell growth
same,aspartate,[4],enhances aspartate
same,cell growth / tolerance of metformin,[4],restores; also recorded: better tolerated metformin
Cc1nc(-c2nc(-c3ccc(OC(F)(F)F)cc3)no2)nn1Cc1cccc(N2CCC(S(C)(=O)=O)CC2)c1 [IACS-10759],NADH/NAD ratio of tumors,[5]; [9],increased
same,intra-tumor lactate level,[5]; [9],increased
same,"2H-malate labeling from [2,3,3-2H]serine in tumors","[5]; IACS-10759 10 mg/kg, 2.5 hours serine infusion",increased
NC(=O)C1=CN([C@@H]2O[C@H](COP(=O)(O)OP(=O)(O)OC[C@H]3O[C@@H](n4cnc5c(N)ncnc54)[C@H](O)[C@@H]3O)[C@@H](O)[C@H]2O)C=CC1 [NADH],NADH level up to which MTHFD2 maintains full activity,"[6]; NADH as competitive (product) inhibitor, adequate NAD",up to 200 μM
same,"sensitivity of MTHFD2 to NADH, less than PDH, KGDH and malate dehydrogenase",[6]; product inhibition by NADH,at least 10 fold
N#C/C(=C\c1cn(-c2ccccc2)c2ccccc12)C(=O)O [UK5099],block of the pyruvate effect (rescue of NADH phenotypes),[7]; metformin-treated cells with pyruvate,does not block; also recorded: not blocked
CC1=C(C)C(=O)C(C)=C(C)C1=O [duroquinone],fractional contribution of serine to NADH,"[7]; added to metformin-treated cells (HCT116, 5 mM metformin)",decreased
"CN(C)C(=N)N=C(N)N [metformin, reference compound]",NADH/NAD ratio in liver,[8],increased; also recorded: significantly increase
same,fractional contribution of serine to NADH,[7]; [10],dramatically elevated
[H]/N=C(/N)N/C(=N/[H])NCCc1ccccc1 [phenformin],fractional contribution of serine to NADH,[7]; [10],dramatically elevated
N[C@@H](CO)C(=O)O [serine],NADH/NAD ratio in liver,[8],significantly increase
same,NADH/NAD ratio in liver,[8]; listed as Serine,increased
